In the test the target is T1, human growth hormone secretagogue receptor (hGHS-R1a) (Homo sapiens, UniProt Q92847).
T1 construct: purchased PerkinElmer BioSignal #RBHGHSM; host or cells: HEK-293, stably transfected
Briefly: Competitive radioligand binding assay (ghrelin receptor), [125I]-ghrelin displacement on GHS-R/HEK 293 membranes.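 On Binding Activity at the Human Ghrelin Receptor (Ki): symbols B 10-100 nM C 0.1-1 µM D 1-10 µM F above 1 µM G above 10 µM.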 The method, then: The competitive binding assay at the human growth hormone secretagogue receptor (hGHS-R1a) was carried out analogously to assays described in the literature.
Multiscreen Harvest plates-GF/C (Millipore, #MAHFC1H60) • 4. […] Bottom seal (Millipore, #MATAH0P00) • 7. […] Binding Buffer: 25 mM Hepes (pH 7.4), 1 mM CaCl2, 5 mM MgCl2, 2.5 mM EDTA, 0.4% BSA
Competition experiments were performed in a 300 μl filtration assay format. • 1. 220 μL of membranes diluted in binding buffer • 2. 40 μL of compound diluted in binding buffer • 3.
Compounds were provided frozen on dry ice at a stock concentration of 10 mM diluted in 100% DMSO and stored at −80° C. until the day of testing. On the test day, compounds were allowed to thaw at rt O/N and then diluted in assay buffer according to the desired test concentrations. Under these conditions, the maximal final DMSO concentration in the assay was 0.1%.
Plates were sealed with TopSeal-A, vortexed gently and incubated at rt for 30 min. The reaction was arrested by filtering samples through Multiscreen Harvest plates (pre-soaked in 0.5% polyethyleneimine) using a Tomtec Harvester, washed 9 times with 500 μL of cold 50 mM Tris-HCl (pH 7.4, 4° C.), and then plates were air-dried in a fumehood 30 min. A bottom seal was applied to the plates prior to the addition of 25 μL of MicroScint-0 to each well. […] Results were expressed as counts per minute (cpm).
Data were analyzed by GraphPad Prism (GraphPad Software, San Diego, Calif.) using […] non-linear regression analysis.
where total and non-specific binding represent the cpm obtained in the absence or presence of 1 μM ghrelin, respectively.
• 1. Binding performed on membranes prepared from HEK293 expressing the transfected, cloned human ghrelin receptor (hGHS-R1a). • 2. […] Ghrelin (unlabeled, 1 μM) was used to determine non-specific binding. • 4.

[1] abbreviates: Table 3B, binding activity at the human ghrelin receptor, read-out: Ki.
Setting [2] is: [125I]-ghrelin displacement, GHS-R/HEK 293 membranes, class symbols, read-out: Binding Activity at the Human Ghrelin Receptor (Ki).
Setting [3] is: Binding activity at the human ghrelin receptor, [125I]-ghrelin displacement, read-out: Ki.

Read-outs that look alike come from different tables or passages of the source.

T1 sequence (Q92847 whole entry): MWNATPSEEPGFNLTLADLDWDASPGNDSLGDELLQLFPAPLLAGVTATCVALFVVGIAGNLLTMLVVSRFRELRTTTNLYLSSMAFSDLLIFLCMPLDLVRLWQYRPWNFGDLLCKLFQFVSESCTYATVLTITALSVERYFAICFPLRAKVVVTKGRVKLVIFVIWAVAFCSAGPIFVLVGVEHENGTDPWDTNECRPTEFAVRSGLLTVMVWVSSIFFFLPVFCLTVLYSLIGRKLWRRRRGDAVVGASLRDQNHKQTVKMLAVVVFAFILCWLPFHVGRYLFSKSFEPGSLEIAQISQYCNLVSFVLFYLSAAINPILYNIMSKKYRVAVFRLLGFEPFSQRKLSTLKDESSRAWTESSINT

`C[C@@H]1C(=O)N[C@H](Cc2ccc(F)cc2)C(=O)NCCCCCOCCN[C@@H](C2CC2)C(=O)N1C` [compound 398]: under setting [1], the Ki was 100 to 1000 nM.
In the case of `C[C@@H]1C(=O)N[C@H](Cc2ccc(F)cc2)C(=O)NCCCc2ccccc2OCCN[C@@H](CN)C(=O)N1C` [compound 337], under setting [1], the Ki lay within 100 to 1000 nM.
Take `CC[C@H](C)[C@@H]1NCCOc2ccccc2C(C)(C)CCNC(=O)[C@H](Cc2cccc(Cl)c2)NC(=O)C2(CCCC2)NC1=O` [compound 359]: under setting [1], the inhibition constant Ki is 100 to 1000 nM.
As to `C[C@@H]1C(=O)N[C@H](Cc2ccc(F)cc2)C(=O)NCCCc2cc(F)ccc2OCCN[C@@H](C2CC2)C(=O)N1C` [compound 355], the Ki under setting [1] lay within 10 to 100 nM.
Turning to `CCC(C)C1NCCOc2ccccc2CCCNC(=O)C(Cc2ccccc2)NC(=O)C(COC(C)(C)C)NC1=O` (centres unmarked) [compound 215], the inhibitory constant (Ki) under setting [2] is 1000 to 10000 nM.
For the molecule `CC1CCNC(=O)[C@@H](Cc2ccc(F)cc2)NC(=O)[C@@H](C)N(C)C(=O)[C@H](C2CC2)NCCOc2ccccc21` (some centres unmarked) [compound 375], the Ki under setting [1] lay within 100 to 1000 nM.
Consider `C[C@@H]1C(=O)N[C@H](Cc2ccc(F)cc2)C(=O)NCCCc2ccccc2OCCN[C@@H](CCCN)C(=O)N1C` [compound 339], for which, under setting [1], the inhibitory constant (Ki) fell in the range of 100 to 1000 nM.
Regarding `CO[C@H](C)[C@@H]1NCCOc2ccccc2CCCNC(=O)[C@@H](Cc2ccc(F)cc2)NC(=O)[C@@H](C)N(C)C1=O` [compound 335], the inhibition constant Ki under setting [1] was 10 to 100 nM.
For the molecule `CC(C)[C@@H]1NCCOc2ccccc2CCCNC(=O)[C@H](Cc2ccccc2)NC(=O)C2(CC2)NC1=O` [compound 216], under setting [2], the Ki is 1000 to 10000 nM.
Consider `C[C@@H]1C(=O)N[C@H](Cc2cccc(Cl)c2)C(=O)NC/C=C/c2ccccc2OCCNC2(CCCC2)C(=O)N1C` [compound 396], for which, where the note is “Table 3C, read-out: Ki”, the inhibition constant (Ki) lay within 10 to 100 nM.
For the molecule `CC(C)C[C@@H]1NCCOc2ccccc2CCCNC(=O)[C@H](Cc2c[nH]c3ccccc23)NC(=O)C2(CCCC2)NC1=O` [compound 89], the Ki under setting [3] lay in the range of 1000 to 10000 nM.
As to `C[C@@H]1C(=O)N[C@H](Cc2ccccc2)C(=O)NCCCc2ccccc2OCCN2CCC[C@H]2C(=O)N1C` [compound 225], the Ki was in the range of 100 to 1000 nM (Table 3E, read-out: Ki) and 100 to 1000 nM under setting [2].
Regarding `CCC[C@@H]1NCCOc2ccccc2CCCNC(=O)[C@@H](Cc2ccccc2)NC(=O)[C@H](CC(C)C)NC1=O` [compound 62], the Ki under setting [3] is 1000 to 10000 nM.
`CN1CC(=O)N[C@H](Cc2ccccc2)C(=O)NCCCc2ccccc2OCCN[C@@H](CO)C1=O` [compound 76]: the Ki under setting [3] was greater than 10000 nM.
On to `CCCC1NCCOc2ccccc2CCCNC(=O)C(C(C)c2ccccc2)NC(=O)CN(C)C1=O` (centres unmarked) [compound 448], for which, under “Table 3D, read-out: Ki”, the Ki lay in the range of 1000 to 10000 nM.
For `O=C1NC2(CCCC2)C(=O)N[C@@H](Cc2ccccc2)C(=O)NC/C=C/c2ccccc2OCCN[C@H]1Cc1cnc[nH]1` [compound 219], under setting [2], the Ki lay in the range of 100 to 1000 nM.
Consider `CC(C)C[C@@H]1NCCOc2ccccc2CCCNC(=O)[C@H](CCC(=O)O)NC(=O)C2(CCCC2)NC1=O` [compound 92], for which the Ki under setting [3] was greater than 10000 nM.
`CC[C@H](C)[C@@H]1NCCOCCOCCNC(=O)[C@H](Cc2cccc(Cl)c2)NC(=O)C2(CCCC2)NC1=O` [compound 393]: the inhibition constant (Ki) under setting [1] is 100 to 1000 nM.
As to `CCC[C@@H]1NCCOc2ccccc2CCCNC(=O)[C@@H](Cc2ccccc2)NC(=O)C(C)(C)NC1=O` [compound 66], the inhibition constant Ki under setting [3] lay in the range of 100 to 1000 nM.
For `COc1ccc(C[C@H]2NC(=O)[C@@H](C)N(C)C(=O)[C@H](C3CC3)NCCOc3ccccc3CCCNC2=O)cc1OC` [compound 323], the Ki under setting [1] was in the range of 100 to 1000 nM.
Consider `CCC[C@H]1NCCOc2ccccc2CCCNC(=O)[C@H](Cc2ccccc2)NC(=O)CN(C)C1=O` [compound 56], for which the inhibitory constant (Ki) under setting [3] is greater than 10000 nM.
Regarding `C[C@@H]1C(=O)N[C@H](Cc2ccc(F)cc2)C(=O)NCCC=CCOCCN[C@@H](C2CC2)C(=O)N1C` [compound 307], under setting [1], the inhibition constant Ki was 100 to 1000 nM.
For the molecule `COc1ccc(C[C@@H]2NCCOc3ccccc3/C=C/CNC(=O)[C@H](Cc3ccccc3)NC(=O)C3(CCCC3)NC2=O)cc1` [compound 127], under setting [3], the Ki is 100 to 1000 nM.
Turning to `CCC[C@@H]1NCCOc2ccccc2CCCNC(=O)[C@@H](C)NC(=O)CN(C)C1=O` [compound 49], the inhibition constant Ki under setting [3] was greater than 10000 nM.
`C[C@@H]1C(=O)N[C@H](Cc2ccc(Cl)c(Cl)c2)C(=O)NCCCc2ccccc2OCCN[C@@H](C2CC2)C(=O)N1C` [compound 315]: the Ki under setting [1] lay in the range of 0.1 to 10 nM.
On to `CCC[C@@H]1NCCOc2ccccc2/C=C/CNC(=O)[C@H](Cc2ccccc2)NC(=O)C2(CCCC2)NC1=O` [compound 137], for which, under setting [3], the Ki is 10 to 100 nM.
In the case of `CC[C@H](C)[C@@H]1NCCOc2ccccc2CCCNC(=O)[C@@H](Cc2ccc(F)cc2)NC(=O)[C@@H](COCc2ccccc2)N(C)C1=O` [compound 440], the inhibition constant Ki (Table 3D, read-out: Ki) lay in the range of 100 to 1000 nM.
On to `O=C1NC2(CCCC2)C(=O)N[C@@H](Cc2ccccc2)C(=O)NC/C=C/c2ccccc2OCCN[C@H]1Cc1cccc2ccccc12` [compound 130], for which the inhibitory constant (Ki) under setting [3] is 1000 to 10000 nM.
As to `O=C1NC2(CCCC2)C(=O)N[C@@H](Cc2ccccc2)C(=O)NC/C=C/c2ccccc2OCCN[C@H]1Cc1ccc2ccccc2c1` [compound 131], the Ki under setting [3] was 100 to 1000 nM.
`C[C@@H]1C(=O)N[C@H](Cc2ccc(F)cc2)C(=O)NCCCc2ccccc2OCCN[C@@H](C2CC2)C(=O)N1C` [compound 309]: the Ki under setting [1] lay within 0.1 to 10 nM.
For the molecule `CCCC1NCCOCCNC(=O)C(Cc2ccccc2)NC(=O)CN(C)C1=O` (centres unmarked) [compound 81], under setting [3], the Ki was greater than 10000 nM.
`CCC[C@@H]1NCCOc2ccccc2CCCNC(=O)[C@@H](Cc2ccccc2)NC(=O)[C@H](Cc2ccccc2)NC1=O` [compound 64]: the Ki under setting [3] is greater than 10000 nM.
For `C[C@@H]1C(=O)N[C@H](Cc2ccc(F)cc2)C(=O)NC/C=C\c2ccccc2OCCN[C@@H](C2CC2)C(=O)N1C` [compound 400], the Ki under setting [1] was 10 to 100 nM.
In the case of `C[C@@H]1C(=O)N[C@H](Cc2cc(F)c(F)c(F)c2)C(=O)NCCCc2ccccc2OCCN[C@@H](C2CC2)C(=O)N1C` [compound 391], the Ki under setting [1] was 0.1 to 10 nM.
Turning to `O=C1NC/C=C/c2ccccc2OCCN[C@@H](C2CC2)C(=O)NC2(CCCC2)C(=O)N[C@H]1Cc1cccc(Cl)c1` [compound 346], the Ki under setting [1] was in the range of 100 to 1000 nM.
In the case of `CC(C)C[C@@H]1NCCOc2ccccc2/C=C/CNC(=O)[C@H](C(c2ccccc2)c2ccccc2)NC(=O)C2(CCCC2)NC1=O` [compound 158], the inhibition constant Ki under setting [2] was greater than 1000 nM.
For the molecule `CC(C)C[C@@H]1NCCOc2ccccc2CCCNC(=O)[C@H](Cc2ccc(O)cc2)NC(=O)C2(CCCC2)NC1=O` [compound 88], under setting [3], the inhibition constant (Ki) is 1000 to 10000 nM.
As for `CC1C(=O)NC(Cc2ccc(F)cc2)C(=O)NCC2CC2c2ccccc2OCCNC(C2CC2)C(=O)N1C` (centres unmarked) [compound 379], the inhibition constant (Ki) under setting [1] was 10 to 100 nM.
As to `CCC[C@@H]1NCCOc2ccccc2CCCNC(=O)CNC(=O)CN(C)C1=O` [compound 51], under setting [3], the inhibitory constant (Ki) is greater than 10000 nM.
With `C[C@@H]1C(=O)N[C@H](Cc2ccc(F)cc2)C(=O)NCCCc2ccc(NS(C)(=O)=O)cc2OCCN[C@@H](C2CC2)C(=O)N1C` [compound 357], under setting [1], the Ki was 100 to 1000 nM.
On to `CC[C@H](C)[C@@H]1NCCCc2ccccc2CCNC(=O)[C@@H](Cc2ccccc2)NC(=O)[C@@H](C)N(C)C1=O` [compound 179], for which the inhibitory constant (Ki) under setting [2] was 100 to 1000 nM.
Regarding `CC[C@H](C)[C@@H]1NCCOc2cccnc2CCCNC(=O)[C@H](Cc2cccc(Cl)c2)NC(=O)C2(CCCC2)NC1=O` [compound 385], the Ki under setting [1] was in the range of 100 to 1000 nM.
Consider `CC(C)C[C@@H]1NCCOc2ccccc2CCCNC(=O)[C@H](Cc2ccccc2)NC(=O)[C@@H]2CCCN2C1=O` [compound 222], for which the Ki (Table 3E, read-out: Ki) was 1000 to 10000 nM and the Ki under setting [2] lay in the range of 1000 to 10000 nM.
Consider `CC(C)C[C@@H]1NCCOc2ccccc2CCCNC(=O)[C@H](CCc2ccccc2)NC(=O)C2(CCCC2)NC1=O` [compound 90], for which the Ki under setting [3] lay within 1000 to 10000 nM.
With `CCCC[C@H]1NC(=O)CN(C)C(=O)[C@H](CCC)NCCOc2ccccc2CCCNC1=O` [compound 52], under setting [3], the inhibition constant (Ki) was in the range of 100 to 1000 nM.
Turning to `CC(=O)N1CCOc2ccccc2/C=C/CNC(=O)[C@H](Cc2ccccc2)NC(=O)C2(CCCC2)NC(=O)[C@@H]1CC(C)C` [compound 204], the Ki under setting [2] is greater than 10000 nM.
For the molecule `O=C1NC2(CCCC2)C(=O)N[C@@H](Cc2cccc(Cl)c2)C(=O)NC/C=C/c2ccccc2OCCN[C@H]1Cc1ccsc1` [compound 341], the Ki under setting [1] was in the range of 10 to 100 nM.
As to `CC(C)C1NCCOc2ccccc2CCCNC(=O)C(Cc2ccccc2)NC(=O)C2(CCNCC2)NC1=O` (centres unmarked) [compound 207], the Ki under setting [2] was greater than 10000 nM.
Turning to `N#Cc1ccccc1C[C@@H]1NCCOc2ccccc2/C=C/CNC(=O)[C@H](Cc2cccc(Cl)c2)NC(=O)C2(CCCC2)NC1=O` [compound 342], the Ki under setting [1] is 100 to 1000 nM.
Turning to `C[C@@H]1NCCOc2ccccc2CCCNC(=O)[C@H](Cc2ccccc2)NC(=O)C2(CCCC2)NC1=O` [compound 100], the Ki under setting [3] was in the range of 100 to 1000 nM.
With `CC(C)C[C@@H]1NCCOc2ccccc2CCCNC(=O)[C@H](CCCCN)NC(=O)C2(CCCC2)NC1=O` [compound 91], the Ki under setting [3] was greater than 10000 nM.

(Values after patent publication US20180110824A1, “Macrocyclic Modulators of the Ghrelin Receptor” (Ocera Therapeutics, Inc., priority 2016, published 2018).)
